Here are results for one molecule from patent US6887882B2, “Pharmaceutical compositions comprising chelidonine or derivatives thereof” (priority 2002, dated 2005).

The subject of one series is mouse. Conditions: intravenously; cited from earlier work.
For series [1], the system named is K+ channel current in human atrial myocytes. Description: Effect on the K+ current in human atrial myocytes (whole cell patch clamp). It counts as cell-based. As for the experimental part: (§1) Currents in human atrial myocytes and cell lines were recorded by using the whole cell configuration of the gigaohm-seal patch clamp techniques (Kwak, et al., Phosphorylation is required for alteration of Kv1.5 K^+ channel function by the Kvbeta 1.3 subunit. J Biol Chem 1999, 274: 25355-25361). First, electrical signals were amplified with a patch clamp amplifier (Axon Instruments, Axopatch-1D, Foster, USA). Currents were digitized by a signal converter (Digidata 1200, Axon Instruments) and stored on the hard disk of a computer. The micropipette with a resistance of 1˜2MΩ (Kimax-51, 1.5=14 1.8×10 mm) for current recording, was pulled out by a 2-stage pipette puller (Narishige, PP-83). The intracellular pipette-filling solution for whole cell mode contained 100 mM KCl, 10 mM HEPES, 5 mM K4BAPTA, 5 mM K2ATP and 1 mM MgCl2 (pH 7.2). The extracellular solution contained 130 mM NaCl, 4 mM KCl, 1.8 mM CaCl2, 1 mM MgCl2, 10 mM HEPES and 10 mM glucose (pH 7.35).
Isolation of human atrial myocytes was carried out by the Wang, et al.'s method (Effects of flecainide, quinidine, and 4-aminopyridine on transient outward and ultrarapid delayed rectifier currents in human atrial myocytes. J Pharmacol Exp Ther 1995, 272: 184-196). Specimens of human right atrial appendage were obtained from the hearts of patients undergoing cardiopulmonary bypass surgery. […]

Series [2] has as its target T1, hKv1.5 channel (Homo sapiens, UniProt P22460).
T1 construct: expressed in transfected cells; host or cells: mouse Ltk- cells (pMSVneo vector, G418 selection)
Put plainly: Channel state-dependency of hKv1.5 block (tail currents). As to conditions: 10 μM; tail currents at -50 mV after +50 mV pulse. The series is classed as cell-based. An excerpt:
We tested the channel state-dependency of hKv1.5 block by chelidonine (FIG. 3).
Under control conditions, the tail currents were rapidly deactivated.

Series [3] has as its target T1, hKv1.5 channel. Description: Voltage-dependent block of hKv1.5 channel currents expressed in Ltk-cells. The series is classed as cell-based. As to conditions: 10 μM. An excerpt:
To quantify the voltage-dependent block of chelidonine (compound 1), the relative steady state current, Ichelidonine/Icontrol was plotted as a function of membrane potential (FIG. 2). The steady-state currents were obtained at the end stage of 250 ms depolarizing pulses, while increasing the membrane voltage by 10 mV from −80 to +60 mV. The dotted line denotes the activation curve of hKv1.5 channel current expressed in Ltk-cells.

For series [4], the target named is T1, hKv1.5 channel. Description: Block of hKv1.5 channel currents expressed in Ltk-cells (whole cell patch clamp). It counts as cell-based. Here is the method: Cell line selectively expressing a specific cardiac K^+ channel gene was prepared according to the method described in the thesis (Yang, et al., Inhibition of cardiac potassium currents by the vesnarinone analog OPC-18790: comparison with quinidine and dofetilide. J Pharmacol Exp Ther. 1997, 280: 1170-1175; Kwak, et al., Phosphorylation is required for alteration of Kv1.5 K^+ channel function by the Kvbeta 1.3 subunit. J Biol Chem 1999, 274: 25355-25361).
First, cDNAs for human cardiac K^+ channel genes such as hKv 1.5 and HERG were subcloned into pMSVneo which contain dexamethasone-inducible murine mammary tumor virus promoter controlling transcription of the inserted cDNA and a gene conferring neomycin resistance driven by the SV40 early promotor. The cDNA-containing expression vector was transfected into mouse Ltk-cells with lipofectamine. After 24 hours, the cells selection with […] of G418 was performed for 2 weeks or until discrete foci formed. Individual foci were isolated, maintained in 0.25 μg/ml of G418, and screened by Norhtern analysis and electrophysiological analysis. Transfected cells were cultured in Dulbeco's modified Eagle medium (DMEM) supplemented with 10% horse serum and 0.25 μg/ml of G418, under 5% CO2. Transiently transfected cells were cultured in DMEM media supplemented with only 10% horse serum, differently from stable cell lines.
as §1
The current traces were recorded with a depolarizing pulse of +50 mV from a holding potential of −80 mV, followed by a repolarizing pulse of −50 mV in the Ltk-cells. To observe the concentration-dependent block of hKv1.5 channel currents by each compound, steady-state currents taken at the end of the depolarizing pulse of +50 mV were normalized to the control obtained in the absence of each compound
FIG. 1e is concentration-response curves showing the relative steady-state currents obtained at the end of the depolarizing pulse against the concentration of each compound. Data were fitted with a Hill equation.
IC50 values (50% inhibitory concentration, μM) of compounds 1˜14 on the hKv1.5 channel currents were determined, and Hill values were calculated from the concentration-response curves of the respective compounds using the Hill equation.
On the technique in general: The patch-clamp technique gives a direct electrical read-out from membranes.

T1 sequence (P22460 whole entry): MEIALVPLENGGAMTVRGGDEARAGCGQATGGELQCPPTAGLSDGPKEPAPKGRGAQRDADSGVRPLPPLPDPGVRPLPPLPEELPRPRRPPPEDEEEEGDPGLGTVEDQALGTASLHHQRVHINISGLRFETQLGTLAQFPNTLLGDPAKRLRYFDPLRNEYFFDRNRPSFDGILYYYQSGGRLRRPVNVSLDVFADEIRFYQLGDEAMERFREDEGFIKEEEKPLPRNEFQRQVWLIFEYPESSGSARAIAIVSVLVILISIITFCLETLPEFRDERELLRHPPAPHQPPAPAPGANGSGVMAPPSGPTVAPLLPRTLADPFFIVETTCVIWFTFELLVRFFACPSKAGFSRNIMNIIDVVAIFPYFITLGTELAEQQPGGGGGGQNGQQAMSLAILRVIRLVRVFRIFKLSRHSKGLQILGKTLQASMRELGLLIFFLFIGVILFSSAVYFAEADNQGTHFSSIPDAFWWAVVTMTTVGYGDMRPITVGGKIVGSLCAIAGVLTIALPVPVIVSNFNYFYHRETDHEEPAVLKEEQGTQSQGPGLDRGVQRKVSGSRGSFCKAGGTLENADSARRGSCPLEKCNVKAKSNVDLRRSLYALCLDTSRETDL

Turning to `CN1Cc2c(ccc3c2OCO3)[C@@H]2[C@H]1c1cc3c(cc1C[C@@H]2O)OCO3` [Compound 1, [5bR-(5bα,6β,12bα)]-5b,6,7,12b,13, 14-hexahydro-13-methyl[1,3]benzodioxolo[5,6c]-1,3-dioxolo[4,5-i]phenanthridin-6-ol], the toxicity in the series with mouse was 34.6 ± 2.44 mg/kg. In addition, the “effect on peak amplitude of outward K+ current” value in series [1] (10 μM) is “decreased the peak amplitude”. Moreover, in series [1] (compared to control, n=7, read-out: inhibition of steady-state currents at the end of the depolarizing pulse of +50 mV), the inhibition at 10 µM stood at 41 ± 5%. Also, at hKv1.5 channel [2], the “channel state-dependency of hKv1.5 block” value is “acts as an open channel blocker”. Besides, the “voltage-dependence of block” value at hKv1.5 channel [3] (between 0 mV and +60 mV) is “weak voltage-dependence”; at hKv1.5 channel [3] (between -30 mV and 0 mV), “strong voltage-dependence”. For the same molecule, on hKv1.5 channel [3] (between 0 mV and +60 mV, n=7), the “δ value (Woodhull equation)” value came to 0.16±0.01. Further, the Hill value at hKv1.5 channel [4] (from concentration-response curves using the Hill equation) was found to be 1.07. Also, the “type of hKv1.5 block” value at hKv1.5 channel [4] (hKv1.5 expressed in Ltk-cells, FIGS. 1a to 1e) is given as “predominantly blocked the open ion channels”. Further, the “effect on the hKv1.5 channel currents” value on hKv1.5 channel [4] (hKv1.5 expressed in Ltk-cells, FIGS. 1a to 1d) is on record as “concentration-dependent inhibitory effects”. The half-maximal inhibitory concentration (IC50) against hKv1.5 channel [4] (hKv1.5 expressed in Ltk-cells, steady-state current at end of +50 mV depolarizing pulse, holding -80 mV) came to 11.5 ± 3.1 µM.

Broadly, the inhibition is the change of the read-out against control, counted positive when it falls. What is called IC50 is the point on the concentration scale where inhibition reaches its midpoint.
